“Also recorded” adds a separate entry of the source.
What was measured:
HCT116 cells [1] = experiment: Muse cell viability assay (percentage of dead cells); conditions: for effect on STS + vitamin C cytotoxicity: HCT116, STS medium supplemented with transferrin, vitamin C 350 μM
[2] = test system: KRAS mutant CRC cells (HCT116, DLD1, CT26.WT); conditions: for effect on cell death induction by STS and vitamin C cotreatment: STS condition, GSH 5 mM or NAC 5 mM co-treated with vitamin C 350 μM, 24 hours
HCT116 cells [3] = experiment: MTT assay; format: cell-based, human; conditions: HCT116, 24 hours-STS before and during oxaliplatin 40 μM 24 hours
Text: The MTT [3-(4,5-Dimethylthiazol-2-yl)-2,5-diphenyltetrazolium bromide] assay is a quantitative colorimetric assay used to determine cell viability (Mosmann, 1983). MTT is characterized by a yellow colour, and upon its reduction to formazan by mitochondrial dehydrogenases, turns into a purple molecule, which has an absorbance peak at 570 nm. The absorbance is proportional to the amount of formazan produced, thus giving a measure of living cells, since the reaction only occur in living and metabolically active cells (Mosmann, 1983).
To evaluate viability, cells were seeded into a 96-well plate (2000 cells per well) in CTR medium. 24 hours later, cells were rinsed twice in 1×PBS, and CTR or STS medium was added. […] At the end of the experiment, medium was removed and cells were incubated with 100 μl of MTT (Sigma-Aldrich, Cat. #: M2128) solution (0.5 mg/ml, dissolved in medium) per well, for 3 hours at 37° C. in the dark. Next, 100 μl of lysis buffer (10% SDS, HCl 0.01M) were added to each well to dissolve formazan crystals and plates were incubated overnight at 37° C. Absorbance was recorded at the wavelength of 570 nm using a microplate reader (Infinite M200 TECAN). The absorbance values of media background were subtracted from the absorbance of each sample. No-treated samples were used as reference values (100% survival) to normalize the absorbance of treated samples.

HCT116 cells [4] = experiment: Erythrosin B exclusion assay; format: cell-based, human; conditions: HCT116, 24 hours-STS before and during oxaliplatin 40 μM 24 hours
Protocol: Erythrosin B is a vital dye that is impermeable to biological membranes, thus staining only unviable cells with disintegrated membranes (Kim et al., 2016).
The next day, cells were rinsed twice in 1×PBS and CTR or STS medium was added. […] Cell death was measured by erythrosine B exclusion assay. Cell suspension was diluted 1:1 with erythrosin B 0.1% in PBS (Sigma-Aldrich, Cat. #: 200964), then cells were counted in a Bürker chamber, and percentage of cell death was calculated as the number of Erythrosin B-positive cells with respect to the total number of cells.

FTH = FTH protein expression in cells (western blot); format: cell-based, human and murine; conditions: HCT116, CTR and STS, hemin 20 μM 12 hours
Protocol: Cells were washed twice in ice-cold PBS and lysates were prepared in RIPA lysis buffer (50 mM Tris HCl pH 7.4, 150 mM NaCl, 1% NP-40, 0.25% deoxycholic acid, 1 mM EDTA) supplemented with protease and phosphatase inhibitors (protease inhibitor cocktail set III EDTA-free, Calbiochem, Cat. #: S39134; PhosStop, Roche), Samples were sonicated (bioruptor plus, diogenode) and centrifuged at 16.1 g for 30 minutes at 4° C. Tumor tissues were collected and snap frozen in liquid nitrogen immediately after mice were sacrificed, and stored in -80° C. until use. […] Protein concentrations were determined by BCA assay (Thermo Fisher Scientific, Cat. #: 23225). Proteins were diluted in 1× Laemmli sample buffer, boiled at 95° C. for 5 minutes and 30 μg of total proteins were separated by using SDS-PAGE and analyzed by western blotting by standard procedures. […] Membranes were incubated overnight at 4° C. with gentle shaking with the following primary antibodies: […] ADI-SPA894), FTH (1:1000, Cell Signaling, Cat. #: 3998), AMPK (1:1000, Cell Signaling, Cat. #: 2532), phospho-[…] AMPK (1:1000, Cell Signaling, Cat. #: 2535), eIF2a (1:1000, Cell signaling, Cat. #: 5324), phospho […] eIF2a (1:1000, Cell signaling, Cat. #: 3597), AKT (1:1000, Cell Signaling, Cat. #: 9272), phospho-[…] […] Bands intensity was quantified with NIH Image J software (version 1.48v).

HO-1 = HO-1 expression in HCT116 (qPCR, western blot); format: cell-based, human; conditions: HCT116, CTR and STS, hemin 20 μM 12 hours
Protocol: Cells were washed twice in ice-cold PBS and lysates were prepared in RIPA lysis buffer (50 mM Tris HCl pH 7.4, 150 mM NaCl, 1% NP-40, 0.25% deoxycholic acid, 1 mM EDTA) supplemented with protease and phosphatase inhibitors (protease inhibitor cocktail set III EDTA-free, Calbiochem, Cat. #: S39134; PhosStop, Roche), Samples were sonicated (bioruptor plus, diogenode) and centrifuged at 16.1 g for 30 minutes at 4° C. Tumor tissues were collected and snap frozen in liquid nitrogen immediately after mice were sacrificed, and stored in -80° C. until use. […] Protein concentrations were determined by BCA assay (Thermo Fisher Scientific, Cat. #: 23225). Proteins were diluted in 1× Laemmli sample buffer, boiled at 95° C. for 5 minutes and 30 μg of total proteins were separated by using SDS-PAGE and analyzed by western blotting by standard procedures. […] Membranes were incubated overnight at 4° C. with gentle shaking with the following primary antibodies: […] ADI-SPA894), FTH (1:1000, Cell Signaling, Cat. #: 3998), AMPK (1:1000, Cell Signaling, Cat. #: 2532), phospho-[…] […] Bands intensity was quantified with NIH Image J software (version 1.48v). […] Resulting cDNA (1/20 v/v) was analyzed by real-time polymerase reaction (qRT-PCR) using TaqMan MBG probes with FAM reporter dyes. […]

ROS in HCT116 cells = experiment: CellROX reactive oxygen species measurement; format: cell-based, human; conditions: HCT116, GSH one hour prior to vitamin C 1 mM
Protocol: Intracellular reactive-oxygen species (ROS) were measured using the CellROX oxidative stress reagents (Life Technologies, Cat. #: 10422). CellROX fluorogenic probe is designed to measure reactive-oxygen species (ROS) in live cells. […] For ROS measurement, cells were seeded in 10 cm petri dish (4×10^5 cells in CTR medium). After 24 hours cells were rinsed twice in 1×PBS and CTR or STS medium was added. 24 hours later, cells were trypsinized, resuspended in their respective media, and treated with 1 mM sodium ascorbate and 1 μM CellROX deep red reagent in the dark, for 30 minutes at 37° C. and 5% CO2. Then, fluorescence was immediately analyzed by flow cytometry (Attune NxT flow cytometer). Data were processed by Kaluza analysis software (Beckman coulter, version 2.0). Data were expressed as fold change of the median fluorescent intensity (MFI) of each treated sample versus the MFI of control sample.

MnTMPyP
effect on cell death upon STS + vitamin C (HCT116 cells [1]; HCT116, STS, MnTMPyP 50 μM before vitamin C 350 μM 24 hours): inhibited cell death upon combinatorial treatment

CC(=O)N[C@@H](CS)C(=O)O [NAC, N-acetyl cysteine]
effect on cell death induction by STS and vitamin C cotreatment [2]: able to revert the massive cell death induction

CC(=O)N(O)CCCCCNC(=O)CCC(=O)N(O)CCCCCNC(=O)CCC(=O)N(O)CCCCCN [DFO, desferrioxamine]
effect on vitamin C-induced cytotoxicity (HCT116 cells [1]; HCT116, STS, DFO 500 μM pre-treatment, cells washed before vitamin C 350 μM): rescued vitamin C-induced cell cytotoxicity

C=CC1=C(C)c2cc3[n-]c(cc4nc(cc5[n-]c(cc1n2)c(C)c5C=C)C(C)=C4CCC(=O)O)c(CCC(=O)O)c3C.[Zn+2] [ZnPP, zinc protoporphyrin]
susceptibility to vitamin C toxicity ([2]; control medium, ZnPP 20 μM 3 hours before vitamin C 700 μM 24 hours): more susceptible to vitamin C toxicity

O=C1[O][Pt]2([NH][C@@H]3CCCC[C@H]3[NH]2)[O]C1=O [oxaliplatin]
percentage of metabolically active cells (MTT) (HCT116 cells [3]): significantly decrease the percentage of metabolically active cells | percentage of cell death (HCT116 cells [4]): increase the percentage of cell death

apo-transferrin: iron-free transferrin
effect on STS + vitamin C cytotoxicity (HCT116 cells [1]): not

hemin
effect on cancer cell death induced by vitamin C alone or with STS ([2]; hemin 20 μM 3 hours before vitamin C 350 μM, CTR or STS): able to reverse cancer cell death | FTH protein expression level (FTH): increases | HO-1 protein expression level (HO-1): increases

N[C@@H](CCC(=O)N[C@@H](CS)C(=O)NCC(=O)O)C(=O)O [GSH, glutathione]
effect on cell death induction by STS and vitamin C cotreatment [2]: able to revert the massive cell death induction | effect on increase in ROS mediated by STS and STS+vitamin C (ROS in HCT116 cells): fully reversed the increase in ROS

holo-transferrin: Iron bound-transferrin
effect on STS + vitamin C cytotoxicity (HCT116 cells [1]): able to rescue the observed cytotoxicity; also recorded: reversed STS+vitamin C-mediated toxicity

B1: catalase: Catalase from bovine liver, membrane-impermeable ROS scavenger decomposing hydrogen peroxide (protein, UniProt P00432 2-527, looked up)
Catalase: ADNRDPASDQMKHWKEQRAAQKPDVLTTGGGNPVGDKLNSLTVGPRGPLLVQDVVFTDEMAHFDRERIPERVVHAKGAGAFGYFEVTHDITRYSKAKVFEHIGKRTPIAVRFSTVAGESGSADTVRDPRGFAVKFYTEDGNWDLVGNNTPIFFIRDALLFPSFIHSQKRNPQTHLKDPDMVWDFWSLRPESLHQVSFLFSDRGIPDGHRHMNGYGSHTFKLVNANGEAVYCKFHYKTDQGIKNLSVEDAARLAHEDPDYGLRDLFNAIATGNYPSWTLYIQVMTFSEAEIFPFNPFDLTKVWPHGDYPLIPVGKLVLNRNPVNYFAEVEQLAFDPSNMPPGIEPSPDKMLQGRLFAYPDTHRHRLGPNYLQIPVNCPYRARVANYQRDGPMCMMDNQGGAPNYYPNSFSAPEHQPSALEHRTHFSGDVQRFNSANDDNVTQVRTFYLKVLNEEQRKRLCENIAGHLKDAQLFIQKKAVKNFSDVHPEYGSRIQALLDKYNEEKPKNAVHTYVQHGSHLSAREKANL
effect on STS-mediated sensitization to vitamin C (HCT116 cells [1]; HCT116, STS, catalase 50 U/ml prior to vitamin C 350 μM 24 hours): able to revert STS-mediated sensitization to vitamin C

From patent US20210352950A1 (priority 2019, published 2021)
